Measurements from patent publication US10143666B2, “Small molecule inhibitors targeting CAG-repeat RNA toxicity in polyglutamine diseases” (The Chinese University of Hong Kong, priority 2015, dated 2018).
Where “and” joins values, the source holds several entries; their conditions need not be identical. Equal values may be shown once.

Legend:
DsRedCAG0 control fly = system: DsRedCAG0 control fly; set-up: species or system Drosophila; settings: in vivo
Description: The synthesis of DB213 was described in Marcheschi et al. (Scheme 1)^12, see FIG. 1. By using a MJD (one kind of polyQ diseases) Drosophila disease model, the inventors established an effective screening platform to test a series of synthesized small molecules for their activity to suppress polyQ-induced neurodegeneration. […] To test whether the compounds acted on CAG-repeat RNA level, another Drosophila model, DsRedCAG100^6, was employed. […] Therefore, DB213 was confirmed to modulate expanded CAG-repeat RNA-mediated toxicity in vivo.
Flies were raised at 21.5° C. on cornmeal medium supplemented with dry yeast. Pseudopupil assay was performed on 12 day-old adult flies as mentioned previously^18. Images were captured by SPOT Insight CCD camera controlled by the SPOT Advanced software (Diagnostic instruments Inc.). External eye assay was performed on 12 day-old adult flies by Olympus SZX-12 stereomicroscope. Eye images were captured using a SPOT Insight CCD camera (Diagnostic instruments Inc.).

Body weight in R6/2 mice = settings: for Body weight (individual mouse): in g (unit assumed)
Description: The body weights were measured daily.

CN(C)CCCNC(=N)c1ccc(C(=N)NCCCN(C)C)cc1.Cl.Cl.Cl.Cl [DB213]
Dominant toxic effect in control fly (DsRedCAG0 control fly): did not show any dominant toxic effect
Body weight (individual mouse) (Body weight in R6/2 mice; i.n. daily 50 mg/kg, Day 1, listed as Compound-5, 50 mg/kg): 20.9 and 20 and 23.9
Body weight (group Mean) (Body weight in R6/2 mice; i.n. daily 50 mg/kg, Day 2): 21.1 g
Body weight (individual mouse) (Body weight in R6/2 mice; i.n. daily 50 mg/kg, Day 2, listed as Compound-5, 50 mg/kg): 20.6 and 17.9 and 17.5 and 25.3
Body weight (individual mouse) (Body weight in R6/2 mice; i.n. daily 50 mg/kg, Day 3, listed as Compound-5, 50 mg/kg): 21.1 and 24 and 26.3
Body weight (group Mean) (Body weight in R6/2 mice; i.n. daily 50 mg/kg, Day 4): 22 g
Body weight (individual mouse) (Body weight in R6/2 mice; i.n. daily 50 mg/kg, Day 4, listed as Compound-5, 50 mg/kg): 20.1 and 26.3
Body weight (individual mouse) (Body weight in R6/2 mice; i.n. daily 50 mg/kg, Day 5, listed as Compound-5, 50 mg/kg): 19.9 and 17.4 and 23.6 and 20.7 and 25.6
Body weight (group Mean) (Body weight in R6/2 mice; i.n. daily 50 mg/kg, Day 6): 21.5 g
Body weight (individual mouse) (Body weight in R6/2 mice; i.n. daily 50 mg/kg, Day 6, listed as Compound-5, 50 mg/kg): 19.9 and 17.6 and 21.5 and 25
Body weight (individual mouse) (Body weight in R6/2 mice; i.n. daily 50 mg/kg, Day 7, listed as Compound-5, 50 mg/kg): 20.4 and 17.9 and 23.5 and 21.5 and 26.3
Body weight (individual mouse) (Body weight in R6/2 mice; i.n. daily 100 mg/kg, Day 1, listed as Compound-5, 100 mg/kg): 19 and 20.6 and 23.5 and 23.2 and 23.7
Body weight (group Mean) (Body weight in R6/2 mice; i.n. daily 100 mg/kg, Day 2): 21 g
Body weight (individual mouse) (Body weight in R6/2 mice; i.n. daily 100 mg/kg, Day 2, listed as Compound-5, 100 mg/kg): 20.3 and 19.2 and 23.2 and 20.7 and 23.6
Body weight (individual mouse) (Body weight in R6/2 mice; i.n. daily 100 mg/kg, Day 3, listed as Compound-5, 100 mg/kg): 19.3 and 20.7 and 19.8 and 23.9 and 21.1
Body weight (group Mean) (Body weight in R6/2 mice; i.n. daily 100 mg/kg, Day 4): 21.6 g
Body weight (individual mouse) (Body weight in R6/2 mice; i.n. daily 100 mg/kg, Day 4, listed as Compound-5, 100 mg/kg): 19.4 and 19.8 and 24 and 21.1 and 24.4
Body weight (individual mouse) (Body weight in R6/2 mice; i.n. daily 100 mg/kg, Day 5, listed as Compound-5, 100 mg/kg): 20.6 and 19.4 and 23.6 and 20.7 and 23.9
Body weight (group Mean) (Body weight in R6/2 mice; i.n. daily 100 mg/kg, Day 6): 21.5 g
Body weight (individual mouse) (Body weight in R6/2 mice; i.n. daily 100 mg/kg, Day 6, listed as Compound-5, 100 mg/kg): 19.8 and 23.6 and 21.1 and 24
Body weight (group Mean) (Body weight in R6/2 mice; i.n. daily 100 mg/kg, Day 7): 21.1 g
Body weight (individual mouse) (Body weight in R6/2 mice; i.n. daily 100 mg/kg, Day 7, listed as Compound-5, 100 mg/kg): 19 and 19.4 and 24.7
Body weight (group Mean) (Body weight in R6/2 mice; i.n. daily 200 mg/kg, Day 1): 20.9 g
Body weight (individual mouse) (Body weight in R6/2 mice; i.n. daily 200 mg/kg, Day 1, listed as Compound-5, 200 mg/kg): 19.9 and 23.6
Body weight (individual mouse) (Body weight in R6/2 mice; i.n. daily 200 mg/kg, Day 2, listed as Compound-5, 200 mg/kg): 23.5
Body weight (group Mean) (Body weight in R6/2 mice; i.n. daily 200 mg/kg, Day 3): 20.4 g
Body weight (individual mouse) (Body weight in R6/2 mice; i.n. daily 200 mg/kg, Day 3, listed as Compound-5, 200 mg/kg): 18.3 and 19.2 and 21.5
Body weight (individual mouse) (Body weight in R6/2 mice; i.n. daily 200 mg/kg, Day 4, listed as Compound-5, 200 mg/kg): 17.9 and 19
Body weight (group Mean) (Body weight in R6/2 mice; i.n. daily 200 mg/kg, Day 5): 20.7 g
Body weight (individual mouse) (Body weight in R6/2 mice; i.n. daily 200 mg/kg, Day 5, listed as Compound-5, 200 mg/kg): 18.2 and 18.3 and 22.7
Body weight (individual mouse) (Body weight in R6/2 mice; i.n. daily 200 mg/kg, Day 6, listed as Compound-5, 200 mg/kg): 18.4 and 23.1
Body weight (group Mean) (Body weight in R6/2 mice; i.n. daily 200 mg/kg, Day 7): 20.4 g
Body weight (group Mean) (Body weight in R6/2 mice; i.n. daily 300 mg/kg, Day 1): 21.6 g
Body weight (group Mean) (Body weight in R6/2 mice; i.n. daily 300 mg/kg, Day 2): 20.2 g
Body weight (group Mean) (Body weight in R6/2 mice; i.n. daily 300 mg/kg, Day 3): 19.5 g
Body weight (group Mean) (Body weight in R6/2 mice; i.n. daily 300 mg/kg, Day 6): 20.1 g
Body weight (group Mean) (Body weight in R6/2 mice; i.n. daily 300 mg/kg, Day 7): 20.4 g
Body weight, differences between treatment groups (Body weight in R6/2 mice; i.n. daily 50-300 mg/kg, any time point, p>0.05): no differences in body weight
Body weight (group Mean) (Body weight in R6/2 mice; i.v. 50 mg/kg (treatment discontinued), Day 2, n 1): 16.1 g
Body weight (group Mean) (Body weight in R6/2 mice; i.v. 50 mg/kg (treatment discontinued), Day 3, n 1): 16.3 g
Body weight (group Mean) (Body weight in R6/2 mice; i.v. 50 mg/kg (treatment discontinued), Day 4, n 1): 16.2 g
Body weight (group Mean) (Body weight in R6/2 mice; i.v. 50 mg/kg (treatment discontinued), Day 5, n 1): 16.8 g
Body weight (group Mean) (Body weight in R6/2 mice; i.v. 50 mg/kg (treatment discontinued), Day 6 (not measured, replaced by mean of days 5 and 7), n 1): 16.8 g
Body weight (group Mean) (Body weight in R6/2 mice; i.v. 50 mg/kg (treatment discontinued), Day 7, n 1): 16.8 g
Body weight (group Mean) (Body weight in R6/2 mice; i.v. twice-a-week 12.5 mg/kg, Day 3): 22 g
